Results published in patent US20090054392A1, “NAPHTHYLPYRIMIDINE, NAPHTHYLPYRAZINE AND NAPHTHYLPYRIDAZINE ANALOGS AND THEIR USE AS AGONISTS OF THE WNT-BETA-CATENIN CELLULAR MESSAGING SYSTEM” (Wyeth, priority 2007, published 2009).

Tested on: Dkk1-LRP5-TCF-Luciferase
Assay: Functional Dkk1-LRP5-TCF-Luciferase Assay in U2OS Cells
Conditions: for fold induction at 2 µM / fold induction at 20 µM / EC50: Homo sapiens, U2OS; for fold induction at 2 µM: read-out: B = TCF ACTIVITY/DMSO CONTROL Fold induction @ 2.0 uM, 2.0 uM compound; for fold induction at 20 µM: read-out: C = TCF ACTIVITY/DMSO CONTROL Fold induction @ 20.0 uM, 20.0 uM compound; for A = MAX FOLD Induction/DMSO CONTROL: maximum fold induction over DMSO control

A = MAX FOLD Induction/DMSO CONTROL [fold]	EC50 [µM]	SMILES	fold induction at 2 µM	fold induction at 20 µM
		CN(CCN(C)[C@@H]1CCN(c2nccc(-c3ccc4ccccc4c3)n2)C1)Cc1ccccc1 [N-benzyl-N,N′-dimethyl-N′-{(3R)-1-[4-(2-naphthyl)pyrimidin-2-yl]pyrrolidin-3-yl}ethane-1,2-diamine]	1.6	
		CCCCNc1nccc(-c2ccc3ccccc3c2)n1 [N-butyl-4-(2-naphthyl)pyrimidin-2-amine]	1.51	
1.230		c1ccc2cc(-c3ccnc(NC4CCCCC4)n3)ccc2c1 [N-cyclohexyl-4-(2-naphthyl)pyrimidin-2-amine]	1.21	1.51
1.230		O=C(NC1CCCCC1)N1CCC(CNc2nccc(-c3ccc4ccccc4c3)n2)CC1 [N-cyclohexyl-4-({[4-(2-naphthyl)pyrimidin-2-yl]amino}methyl)piperidine-1-carboxamide]	1.81	0.067
		O=C(NC1CCCCC1)N1CCC(Nc2nccc(-c3ccc4ccccc4c3)n2)CC1 [N-cyclohexyl-4-{[4-(2-naphthyl)pyrimidin-2-yl]amino}piperidine-1-carboxamide]		1.45
		c1ccc2cc(-c3ccnc(NC4CCCC4)n3)ccc2c1 [N-cyclopentyl-4-(2-naphthyl)pyrimidin-2-amine]	1.95	0.83
		CCNC(=O)N1CC(CNc2nccc(-c3ccc4ccccc4c3)n2)C1 [N-ethyl-3-({[4-(2-naphthyl)pyrimidin-2-yl]amino}methyl)azetidine-1-carboxamide]	1.57	
		CCNC(=O)N1CCC(CNc2nccc(-c3ccc4ccccc4c3)n2)CC1 [N-ethyl-4-({[4-(2-naphthyl)pyrimidin-2-yl]amino}methyl)piperidine-1-carboxamide]	1.35	1.3
1.640	12.7	CCNC(=O)N1CCCN(c2nccc(-c3ccc4ccccc4c3)n2)CC1 [N-ethyl-4-[4-(2-naphthyl)pyrimidin-2-yl]-1,4-diazepane-1-carboxamide]		2.58
2.280	18.2	CCNC(=O)N1CCC(Nc2nccc(-c3ccc4ccccc4c3)n2)CC1 [N-ethyl-4-{[4-(2-naphthyl)pyrimidin-2-yl]amino}piperidine-1-carboxamide]	1.14	1.6
		CCNC(=O)N1CCC(N(C)c2nccc(-c3ccc4ccccc4c3)n2)CC1 [N-ethyl-4-{methyl[4-(2-naphthyl)pyrimidin-2-yl]amino}piperidine-1-carboxamide]	1.2	1.45
		CCN(C)CCN(C)[C@@H]1CCN(c2nccc(-c3ccc4ccccc4c3)n2)C1 [N-ethyl-N,N′-dimethyl-N′-{(3R)-1-[4-(2-naphthyl)pyrimidin-2-yl]pyrrolidin-3-yl}ethane-1,2-diamine]	1.8	
		CCN(CCO)C(=O)[C@@H]1CCCN1c1nccc(-c2ccc3ccccc3c2)n1 [N-ethyl-N-(2-hydroxyethyl)-1-[4-(2-naphthyl)pyrimidin-2-yl]-L-prolinamide]	1.03	1.63
		CCN(CC)CC1CCN(c2nccc(-c3ccc4ccccc4c3)n2)CC1 [N-ethyl-N-({1-[4-(2-naphthyl)pyrimidin-2-yl]piperidin-4-yl}methyl)ethanamine]	1.14	0.02
		CCN(CC)CC1CCN(c2nccc(-c3ccc4ccccc4c3)n2)C1 (stereo not drawn) [N-ethyl-N-({1-[4-(2-naphthyl)pyrimidin-2-yl]pyrrolidin-3-yl}methyl)ethanamine]	1.58	
		CCNC(=O)NCCC1CCN(c2nccc(-c3ccc4ccccc4c3)n2)CC1 [N-ethyl-N′-(2-{1-[4-(2-naphthyl)pyrimidin-2-yl]piperidin-4-yl}ethyl)urea]	1.78	1.87
		CCNC(=O)NCCN1CCN(c2nccc(-c3ccc4ccccc4c3)n2)CC1 [N-ethyl-N′-(2-{4-[4-(2-naphthyl)pyrimidin-2-yl]piperazin-1-yl}ethyl)urea]	1.09	0.28
2.740		CCNC(=O)N[C@H]1CC[C@H](Nc2nccc(-c3ccc4ccccc4c3)n2)CC1 [N-ethyl-N′-(trans-4-{[4-(2-naphthyl)pyrimidin-2-yl]amino}cyclohexyl)urea]	2.84	2.35
		CCNC(=O)NCC1CN(c2nccc(-c3ccc4ccccc4c3)n2)C1 [N-ethyl-N′-({1-[4-(2-naphthyl)pyrimidin-2-yl]azetidin-3-yl}methyl)urea]		1.06
		CCNC(=O)NCC1CCN(c2nccc(-c3ccc4ccccc4c3)n2)CC1 [N-ethyl-N′-({1-[4-(2-naphthyl)pyrimidin-2-yl]piperidin-4-yl}methyl)urea]	1.7	1.34

A = MAX FOLD Induction/DMSO CONTROL [fold]	EC50 [µM]	SMILES	fold induction at 2 µM	fold induction at 20 µM
		CCNC(=O)NCC1CCN(c2nccc(-c3ccc4ccccc4c3)n2)C1 (stereo not drawn) [N-ethyl-N′-({1-[4-(2-naphthyl)pyrimidin-2-yl]pyrrolidin-3-yl}methyl)urea]	0.93	1.2
1.320		CCNC(=O)NC1CCCN(c2nccc(-c3ccc4ccccc4c3)n2)CC1 (stereo not drawn) [N-ethyl-N′-{1-[4-(2-naphthyl)pyrimidin-2-yl]azepan-4-yl}urea]	2.33	2.56
		CCNC(=O)N[C@H]1CCN(c2nccc(-c3ccc4ccccc4c3)n2)C1 [N-ethyl-N′-{(3S)-1-[4-(2-naphthyl)pyrimidin-2-yl]pyrrolidin-3-yl}urea]	1.03	0.6
		CC(C)CNc1nccc(-c2ccc3ccccc3c2)n1 [N-isobutyl-4-(2-naphthyl)pyrimidin-2-amine]	1.77	
		CC(C)Nc1nccc(-c2ccc3ccccc3c2)n1 [N-isopropyl-4-(2-naphthyl)pyrimidin-2-amine]	1.64	
		CC(C)NC(=O)N1CCC(CNc2nccc(-c3ccc4ccccc4c3)n2)CC1 [N-isopropyl-4-({[4-(2-naphthyl)pyrimidin-2-yl]amino}methyl)piperidine-1-carboxamide]	1.31	0.54
		CC(C)NC(=O)N1CCC(Nc2nccc(-c3ccc4ccccc4c3)n2)CC1 [N-isopropyl-4-{[4-(2-naphthyl)pyrimidin-2-yl]amino}piperidine-1-carboxamide]	1.07	1.37
		CC(C)N(C)CCN(C)[C@@H]1CCN(c2nccc(-c3ccc4ccccc4c3)n2)C1 [N-isopropyl-N,N′-dimethyl-N′-{(3R)-1-[4-(2-naphthyl)pyrimidin-2-yl]pyrrolidin-3-yl}ethane-1,2-diamine]	2.2	
		CC(C)NC(=O)NCCC1CCN(c2nccc(-c3ccc4ccccc4c3)n2)CC1 [N-isopropyl-N′-(2-{1-[4-(2-naphthyl)pyrimidin-2-yl]piperidin-4-yl}ethyl)urea]	1.46	1.58
		CC(C)NC(=O)NCCN1CCN(c2nccc(-c3ccc4ccccc4c3)n2)CC1 [N-isopropyl-N′-(2-{4-[4-(2-naphthyl)pyrimidin-2-yl]piperazin-1-yl}ethyl)urea]	1.06	0.1
		CC(C)NC(=O)N[C@@H]1CCN(c2nccc(-c3ccc4ccccc4c3)n2)C1 [N-isopropyl-N′-{(3R)-1-[4-(2-naphthyl)pyrimidin-2-yl]pyrrolidin-3-yl}urea]	1.19	1.09
		CC(C)NC(=O)N[C@H]1CCN(c2nccc(-c3ccc4ccccc4c3)n2)C1 [N-isopropyl-N′-{(3S)-1-[4-(2-naphthyl)pyrimidin-2-yl]pyrrolidin-3-yl}urea]	1.12	0.79
		CNC(=O)[C@H]1CCCN1c1nccc(-c2ccc3ccccc3c2)n1 [N-methyl-1-[4-(2-naphthyl)pyrimidin-2-yl]-D-prolinamide]	1.13	1.32
2.840		CNCC1CCN(c2nccc(-c3ccc4ccccc4c3)n2)CC1 [N-methyl-1-{1-[4-(2-naphthyl)pyrimidin-2-yl]piperidin-4-yl}methanamine]	1.49	0.01
1.030		CNC[C@H]1CCN(c2nccc(-c3ccc4ccccc4c3)n2)C1 [N-methyl-1-{(3R)-1-[4-(2-naphthyl)pyrimidin-2-yl]pyrrolidin-3-yl}methanamine]	2.76	0.01
4.773	2.35	CNC[C@@H]1CCN(c2nccc(-c3ccc4ccccc4c3)n2)C1 [N-methyl-1-{(3S)-1-[4-(2-naphthyl)pyrimidin-2-yl]pyrrolidin-3-yl}methanamine]	2.74	0.503
		CCCN1CCC(N(C)c2nccc(-c3ccc4ccccc4c3)n2)CC1 [N-methyl-4-(2-naphthyl)-N-(1-propylpiperidin-4-yl)pyrimidin-2-amine]	1.74	
		CN(c1nccc(-c2ccc3ccccc3c2)n1)C1CCN(c2ncccn2)CC1 [N-methyl-4-(2-naphthyl)-N-(1-pyrimidin-2-ylpiperidin-4-yl)pyrimidin-2-amine]	1.7	
		CN(c1nccc(-c2ccc3ccccc3c2)n1)C1CCN(C(=O)N2CCCC2)CC1 [N-methyl-4-(2-naphthyl)-N-[1-(pyrrolidin-1-ylcarbonyl)piperidin-4-yl]pyrimidin-2-amine]	1.81	
		CN(c1nccc(-c2ccc3ccccc3c2)n1)C1CCN(C(=O)C(F)(F)F)CC1 [N-methyl-4-(2-naphthyl)-N-[1-(trifluoroacetyl)piperidin-4-yl]pyrimidin-2-amine]	1.03	1.06
